# Results: patent publication US10870647B2, “Imidazopyridine derivative, method for preparing same, and pharmaceutical composition containing same as active ingredient for preventing or treating cancer” (DAEGU-GYEONGBUK MEDICAL INNOVATION FOUNDATION, priority 2016, dated 2020)
# Columns and labels:
# Experiment in all cases: Kinase selectivity, scanMAX Kinase assay panel (DiscoverX), % control at 1 uM
# Format in all cases: binding
# [1] = molecular target: T1, scanMAX Kinase assay panel (Homo sapiens, UniProt P19525); details: PRKR; 1 uM; read-out: Percent Control (%)
# T1 construct: purchased DiscoverX
# Outline: (§1)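 Read-out is percent of control, derived from the signal with compound relative to positive and negative controls: (compound − positive)/(negative − positive) × 100. Each enzyme received test drug at 1 uM in DMSO, and values under 35% count as active.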
# [2] = molecular target: T2, scanMAX Kinase assay panel (Homo sapiens, UniProt P42336); details: PIK3CA; 1 uM; read-out: Percent Control (%)
# T2 construct: purchased DiscoverX
# Outline: as §1
# [3] = molecular target: T3, scanMAX Kinase assay panel (Homo sapiens, UniProt P0C1S8); details: WEE2; 1 uM; read-out: Percent Control (%)
# T3 construct: purchased DiscoverX
# Outline: as §1
# [4] = molecular target: T4, scanMAX Kinase assay panel (Homo sapiens, UniProt Q96NX5); details: CAMK1G; 1 uM; read-out: Percent Control (%)
# T4 construct: purchased DiscoverX
# Outline: as §1
# [5] = molecular target: T5, scanMAX Kinase assay panel (Homo sapiens, UniProt P35590); details: TIE1; 1 uM; read-out: Percent Control (%)
# T5 construct: purchased DiscoverX
# Outline: as §1
# [6] = molecular target: T6, scanMAX Kinase assay panel (Homo sapiens, UniProt Q15303); details: ERBB4; 1 uM; read-out: Percent Control (%)
# T6 construct: purchased DiscoverX
# Outline: as §1
# [7] = molecular target: T7, scanMAX Kinase assay panel (Homo sapiens, UniProt O14578); details: CIT; 1 uM; read-out: Percent Control (%)
# T7 construct: purchased DiscoverX
# Outline: as §1
# [8] = molecular target: T8, scanMAX Kinase assay panel (Homo sapiens, UniProt Q13976); details: PRKG1; 1 uM; read-out: Percent Control (%)
# T8 construct: purchased DiscoverX
# T8 sequence (Q13976 1-671): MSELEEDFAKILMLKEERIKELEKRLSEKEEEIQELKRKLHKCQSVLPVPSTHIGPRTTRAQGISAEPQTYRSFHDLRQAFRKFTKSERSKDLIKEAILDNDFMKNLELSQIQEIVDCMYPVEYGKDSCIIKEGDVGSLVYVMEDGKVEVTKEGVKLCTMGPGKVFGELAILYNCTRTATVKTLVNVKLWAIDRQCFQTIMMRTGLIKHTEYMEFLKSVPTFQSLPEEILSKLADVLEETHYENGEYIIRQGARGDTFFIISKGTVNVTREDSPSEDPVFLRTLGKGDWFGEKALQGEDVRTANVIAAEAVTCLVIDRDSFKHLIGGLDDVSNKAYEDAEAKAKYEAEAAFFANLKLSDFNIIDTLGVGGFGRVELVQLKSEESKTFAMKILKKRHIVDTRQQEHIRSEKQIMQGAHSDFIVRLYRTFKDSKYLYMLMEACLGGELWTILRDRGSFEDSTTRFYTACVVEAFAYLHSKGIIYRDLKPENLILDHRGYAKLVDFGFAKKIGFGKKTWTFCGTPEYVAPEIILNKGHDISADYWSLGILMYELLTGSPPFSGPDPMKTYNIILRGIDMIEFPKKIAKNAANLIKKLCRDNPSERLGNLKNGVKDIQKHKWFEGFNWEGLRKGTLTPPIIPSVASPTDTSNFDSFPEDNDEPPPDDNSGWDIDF
# Outline: as §1
# [9] = molecular target: T9, scanMAX Kinase assay panel (Homo sapiens, UniProt P0C264); details: SgK110; 1 uM; read-out: Percent Control (%)
# T9 construct: purchased DiscoverX
# T9 sequence (P0C264 1-359): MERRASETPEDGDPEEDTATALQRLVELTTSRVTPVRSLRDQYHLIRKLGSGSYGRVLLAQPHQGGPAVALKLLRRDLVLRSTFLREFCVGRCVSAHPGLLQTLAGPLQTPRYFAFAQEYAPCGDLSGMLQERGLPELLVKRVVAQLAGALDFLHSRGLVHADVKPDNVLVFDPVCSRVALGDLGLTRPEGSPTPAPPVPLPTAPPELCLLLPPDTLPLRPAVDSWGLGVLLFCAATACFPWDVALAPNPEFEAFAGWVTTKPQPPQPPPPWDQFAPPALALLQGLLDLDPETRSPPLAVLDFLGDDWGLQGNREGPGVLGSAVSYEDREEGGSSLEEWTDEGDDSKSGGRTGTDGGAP
# Outline: as §1
# [10] = molecular target: T10, scanMAX Kinase assay panel (Homo sapiens, UniProt O15530); details: PDPK1; 1 uM; read-out: Percent Control (%)
# T10 construct: purchased DiscoverX
# T10 sequence (O15530 1-556): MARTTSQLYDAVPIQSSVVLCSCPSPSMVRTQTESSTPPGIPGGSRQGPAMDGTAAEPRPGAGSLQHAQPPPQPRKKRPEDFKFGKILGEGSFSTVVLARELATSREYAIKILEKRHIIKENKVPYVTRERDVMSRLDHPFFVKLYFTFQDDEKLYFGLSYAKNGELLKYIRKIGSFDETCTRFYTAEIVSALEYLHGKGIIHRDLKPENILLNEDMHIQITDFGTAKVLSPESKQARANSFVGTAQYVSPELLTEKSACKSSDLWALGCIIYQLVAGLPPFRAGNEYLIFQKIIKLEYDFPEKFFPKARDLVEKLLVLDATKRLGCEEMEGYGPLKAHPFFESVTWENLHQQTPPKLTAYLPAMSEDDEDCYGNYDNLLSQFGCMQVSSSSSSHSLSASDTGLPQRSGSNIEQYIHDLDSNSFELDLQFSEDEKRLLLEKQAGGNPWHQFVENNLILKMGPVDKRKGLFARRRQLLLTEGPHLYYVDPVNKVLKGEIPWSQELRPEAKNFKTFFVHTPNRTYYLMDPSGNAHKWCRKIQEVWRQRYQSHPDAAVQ
# Outline: as §1
# T7 sequence (O14578 whole entry): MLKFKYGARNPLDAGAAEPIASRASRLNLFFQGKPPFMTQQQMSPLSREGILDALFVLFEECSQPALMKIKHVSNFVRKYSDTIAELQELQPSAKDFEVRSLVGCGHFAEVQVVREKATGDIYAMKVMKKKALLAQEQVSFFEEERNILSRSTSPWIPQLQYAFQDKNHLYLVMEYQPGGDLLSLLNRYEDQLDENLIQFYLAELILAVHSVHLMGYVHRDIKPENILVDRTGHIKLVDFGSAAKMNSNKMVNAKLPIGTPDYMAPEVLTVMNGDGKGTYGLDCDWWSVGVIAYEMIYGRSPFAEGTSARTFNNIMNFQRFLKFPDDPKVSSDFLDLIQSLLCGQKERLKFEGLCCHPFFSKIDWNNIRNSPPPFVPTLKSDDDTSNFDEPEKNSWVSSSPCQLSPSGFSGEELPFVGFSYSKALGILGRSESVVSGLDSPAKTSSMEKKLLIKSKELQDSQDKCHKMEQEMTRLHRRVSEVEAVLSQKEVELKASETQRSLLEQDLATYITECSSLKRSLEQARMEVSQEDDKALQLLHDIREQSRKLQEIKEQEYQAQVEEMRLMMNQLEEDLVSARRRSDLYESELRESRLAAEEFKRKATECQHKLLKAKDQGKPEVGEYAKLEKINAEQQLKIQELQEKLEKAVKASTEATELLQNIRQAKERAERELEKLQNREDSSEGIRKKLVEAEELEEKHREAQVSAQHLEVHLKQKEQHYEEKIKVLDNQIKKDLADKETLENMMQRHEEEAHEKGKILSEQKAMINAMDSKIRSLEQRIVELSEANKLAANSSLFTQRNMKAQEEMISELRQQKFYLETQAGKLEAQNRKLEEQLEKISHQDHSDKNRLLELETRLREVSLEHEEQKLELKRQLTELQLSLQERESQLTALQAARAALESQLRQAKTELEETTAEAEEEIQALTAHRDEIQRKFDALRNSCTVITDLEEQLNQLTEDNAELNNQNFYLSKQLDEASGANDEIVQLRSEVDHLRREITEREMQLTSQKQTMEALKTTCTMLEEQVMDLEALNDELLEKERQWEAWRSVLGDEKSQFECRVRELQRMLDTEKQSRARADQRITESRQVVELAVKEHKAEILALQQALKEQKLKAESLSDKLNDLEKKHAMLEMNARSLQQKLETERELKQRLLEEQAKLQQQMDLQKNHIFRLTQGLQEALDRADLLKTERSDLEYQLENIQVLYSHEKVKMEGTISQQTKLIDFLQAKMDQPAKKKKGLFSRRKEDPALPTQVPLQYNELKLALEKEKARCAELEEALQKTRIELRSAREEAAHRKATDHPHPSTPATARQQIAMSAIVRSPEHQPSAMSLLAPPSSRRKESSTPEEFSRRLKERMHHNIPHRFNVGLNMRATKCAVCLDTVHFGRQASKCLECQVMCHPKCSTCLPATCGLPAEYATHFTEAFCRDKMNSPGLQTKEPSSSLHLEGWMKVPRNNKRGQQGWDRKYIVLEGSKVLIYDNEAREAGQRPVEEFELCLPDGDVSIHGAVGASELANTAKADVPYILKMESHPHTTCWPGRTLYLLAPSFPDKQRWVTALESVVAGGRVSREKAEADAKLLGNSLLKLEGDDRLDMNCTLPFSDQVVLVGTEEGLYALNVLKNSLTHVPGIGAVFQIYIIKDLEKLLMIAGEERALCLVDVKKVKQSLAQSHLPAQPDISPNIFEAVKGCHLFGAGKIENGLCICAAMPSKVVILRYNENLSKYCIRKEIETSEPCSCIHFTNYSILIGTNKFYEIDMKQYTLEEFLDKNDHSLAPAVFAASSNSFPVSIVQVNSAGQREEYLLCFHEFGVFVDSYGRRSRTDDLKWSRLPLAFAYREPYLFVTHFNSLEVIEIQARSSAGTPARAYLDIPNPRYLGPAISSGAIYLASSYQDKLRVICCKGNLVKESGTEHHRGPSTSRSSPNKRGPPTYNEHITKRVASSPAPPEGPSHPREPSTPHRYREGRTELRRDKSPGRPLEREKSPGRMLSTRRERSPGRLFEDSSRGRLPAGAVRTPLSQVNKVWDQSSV
# T3 sequence (P0C1S8 whole entry): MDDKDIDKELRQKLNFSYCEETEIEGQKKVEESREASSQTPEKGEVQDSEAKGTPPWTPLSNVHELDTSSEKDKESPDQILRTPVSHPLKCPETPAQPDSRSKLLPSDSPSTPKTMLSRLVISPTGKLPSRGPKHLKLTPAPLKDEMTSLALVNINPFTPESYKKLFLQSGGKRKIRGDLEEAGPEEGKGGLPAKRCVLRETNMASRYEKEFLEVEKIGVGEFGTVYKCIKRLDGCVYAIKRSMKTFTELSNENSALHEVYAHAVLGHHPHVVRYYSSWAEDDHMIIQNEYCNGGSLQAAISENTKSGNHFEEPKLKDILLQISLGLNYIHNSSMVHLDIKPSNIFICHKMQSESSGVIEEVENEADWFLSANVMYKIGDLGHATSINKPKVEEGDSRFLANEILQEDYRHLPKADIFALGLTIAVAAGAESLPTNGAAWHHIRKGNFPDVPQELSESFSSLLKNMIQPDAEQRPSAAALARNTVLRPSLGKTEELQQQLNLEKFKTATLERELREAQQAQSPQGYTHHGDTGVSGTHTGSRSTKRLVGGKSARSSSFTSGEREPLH
# T1 sequence (P19525 whole entry): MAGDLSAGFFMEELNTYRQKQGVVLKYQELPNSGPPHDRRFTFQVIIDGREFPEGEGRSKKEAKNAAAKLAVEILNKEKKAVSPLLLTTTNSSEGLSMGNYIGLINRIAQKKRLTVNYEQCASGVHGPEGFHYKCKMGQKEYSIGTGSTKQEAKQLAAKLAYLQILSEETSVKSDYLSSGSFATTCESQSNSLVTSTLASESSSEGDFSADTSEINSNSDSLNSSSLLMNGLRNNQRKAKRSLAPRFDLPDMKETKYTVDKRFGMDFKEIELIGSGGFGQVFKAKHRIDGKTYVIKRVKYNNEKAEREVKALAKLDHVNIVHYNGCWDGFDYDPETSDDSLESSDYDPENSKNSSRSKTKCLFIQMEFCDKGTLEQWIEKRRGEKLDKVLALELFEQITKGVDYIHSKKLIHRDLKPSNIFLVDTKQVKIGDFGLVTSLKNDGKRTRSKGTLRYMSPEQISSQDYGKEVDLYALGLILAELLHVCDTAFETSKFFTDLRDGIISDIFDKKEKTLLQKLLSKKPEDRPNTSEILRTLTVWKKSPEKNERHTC
# T5 sequence (P35590 22-1138): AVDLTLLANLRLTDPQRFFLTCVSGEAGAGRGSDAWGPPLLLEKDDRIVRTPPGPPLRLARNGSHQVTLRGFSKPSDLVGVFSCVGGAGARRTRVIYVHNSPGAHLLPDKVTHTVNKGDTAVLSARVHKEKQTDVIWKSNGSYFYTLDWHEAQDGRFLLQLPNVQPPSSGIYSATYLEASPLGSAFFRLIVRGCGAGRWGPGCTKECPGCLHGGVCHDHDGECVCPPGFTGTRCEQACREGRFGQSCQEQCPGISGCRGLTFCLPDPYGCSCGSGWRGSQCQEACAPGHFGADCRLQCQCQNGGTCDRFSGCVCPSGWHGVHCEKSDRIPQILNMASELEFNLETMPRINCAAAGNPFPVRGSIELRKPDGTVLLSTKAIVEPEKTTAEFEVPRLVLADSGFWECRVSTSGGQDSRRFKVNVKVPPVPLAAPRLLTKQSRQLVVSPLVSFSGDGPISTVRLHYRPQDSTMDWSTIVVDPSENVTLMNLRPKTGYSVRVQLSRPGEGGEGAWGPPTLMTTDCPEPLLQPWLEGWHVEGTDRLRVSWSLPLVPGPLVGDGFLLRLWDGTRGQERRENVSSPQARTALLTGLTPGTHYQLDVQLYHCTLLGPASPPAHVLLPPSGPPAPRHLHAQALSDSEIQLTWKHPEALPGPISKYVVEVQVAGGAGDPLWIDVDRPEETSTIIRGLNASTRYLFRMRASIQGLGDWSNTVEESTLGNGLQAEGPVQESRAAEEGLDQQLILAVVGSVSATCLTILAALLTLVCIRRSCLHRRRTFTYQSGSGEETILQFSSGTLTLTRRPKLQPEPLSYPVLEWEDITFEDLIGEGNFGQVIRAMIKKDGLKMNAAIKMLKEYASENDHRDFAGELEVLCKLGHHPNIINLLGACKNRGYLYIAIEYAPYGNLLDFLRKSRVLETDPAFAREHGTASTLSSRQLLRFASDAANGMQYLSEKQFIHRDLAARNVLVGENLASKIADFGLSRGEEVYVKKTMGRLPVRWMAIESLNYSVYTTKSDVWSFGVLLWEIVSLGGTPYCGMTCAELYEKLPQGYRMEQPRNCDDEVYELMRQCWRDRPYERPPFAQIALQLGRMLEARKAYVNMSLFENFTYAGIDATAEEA
# T4 sequence (Q96NX5 whole entry): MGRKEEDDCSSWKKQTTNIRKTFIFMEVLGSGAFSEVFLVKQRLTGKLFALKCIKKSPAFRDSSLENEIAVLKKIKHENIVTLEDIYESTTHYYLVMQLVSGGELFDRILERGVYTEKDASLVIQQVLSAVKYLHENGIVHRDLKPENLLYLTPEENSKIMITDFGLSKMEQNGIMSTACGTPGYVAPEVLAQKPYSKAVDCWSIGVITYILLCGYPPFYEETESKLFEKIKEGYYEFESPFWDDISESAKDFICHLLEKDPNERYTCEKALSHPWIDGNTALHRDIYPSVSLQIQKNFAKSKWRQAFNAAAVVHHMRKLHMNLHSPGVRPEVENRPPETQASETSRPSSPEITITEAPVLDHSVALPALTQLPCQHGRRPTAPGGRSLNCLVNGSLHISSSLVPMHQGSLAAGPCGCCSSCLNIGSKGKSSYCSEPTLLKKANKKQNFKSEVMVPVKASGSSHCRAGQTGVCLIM
Structure (SMILES),remaining binding at 1 µM [1],remaining binding at 1 µM [2],remaining binding at 1 µM [3],remaining binding at 1 µM [4],remaining binding at 1 µM [5],remaining binding at 1 µM [6],remaining binding at 1 µM [7],remaining binding at 1 µM [8],remaining binding at 1 µM [9],remaining binding at 1 µM [10]
Cc1ccc(NC(=O)C2(C(=O)Nc3ccc(F)cc3)CC2)cc1C#Cc1cnc2c(Nc3cnn(C(C)C)c3)cccn12 [Example 78],100%,100%,100%,100%,27%,100%,100%,100%,100%,92%
"Cc1cn(-c2cc(NC(=O)c3ccc(C)c(C#Cc4cnc5c(Nc6cnn(C)c6)cccn45)c3)cc(C(F)(F)F)c2)cn1 [Example 12, 4-methyl-N-(3-(4-methyl-1H-imidazol-1-yl)-5-(trifluoromethyl)phenyl)-3-((8-((1-methyl-1H-pyrazol-4-yl)amino)imidazo[1,2-a]pyridin-3-yl)ethynyl)benzamide]",89%,100%,80%,91%,26%,32%,0%,86%,81%,93%
"Cc1ccc(C(=O)Nc2ccc(CN3CCN(C)CC3)c(C(F)(F)F)c2)cc1C#Cc1cnc2c(Nc3cnn(C)c3)cccn12 [Example 1, 4-methyl-3-((8-((1-methyl-1H-pyrazol-4-yl)amino)imidazo[1,2-a]pyridin-3-yl)ethynyl)-N-(4-((4-methylpiperazin-1-yl)methyl)-3-(trifluoromethyl)phenyl)benzamide]",80%,99%,60%,71%,2%,0%,0%,94%,95%,50%
